Measurements taken from patent publication US6368604B1, “Non-pyrogenic derivatives of lipid A” (priority 1997, dated 2002).

Experiments:
human PBMCs [1] = test: β chemokine (MIP-1α, MIP-1β, RANTES) secretion from human PBMCs, dose and time course, capture ELISA; format: cell-based
human PBMCs [2] = test: Human PBMC activation assay: TNFα, IL-1β, IL-6 in culture supernatants by capture ELISA; format: cell-based; settings: human PBMC culture supernatants after stimulation, 1 μg/ml, 8 hr
Description: 50 ml of whole blood is mixed with an equal volume of RPMI (Life Technologies) and PBMCs are isolated by density gradient using lymphocyte separation medium according to the manufacturer's directions (Organon). The PBMCs are washed twice with RPMI then resuspended in 6 ml of ice cold sterile water and placed on ice for 30 sec to lyse the erythrocytes. The osmolarity is adjusted by adding 2 ml of ice cold 3.5% (w/v) NaCl; the PBMCs are harvested by centrifugation, washed with RPMI and resuspended in complete medium (CM; RPMI containing pyruvate, glutamine, PenStrep, and 10% endotoxin-free human AB serum (Life Technologies) at a density of 6×10^6 PBMCs/ml. CM containing the preparations to be assayed are placed into duplicate wells of a 96-well flat bottom culture late (Costar) at double the target final concentration. An equal volume of CM containing the PBMCs then is added to these wells and the culture plates are incubated at 37° C. in 5% CO2 for 8 hr. The supernatants are then removed and stored at […] Quantitation of TNFα, IL-1β, IL-6, MIP-1α, MIP-1β and RANTES in these culture supernatants is achieved by capture ELISA (R&D Systems).
(§1) Quantitation of TNFα, IL-1β, IL-6, MIP-1α and MIP-1β in these culture supernatants was achieved by capture ELISA (R&D Systems).
This observation was reproduced using four unrelated PBMC donors and two separate LPS preparations. […]

HIV-1BAL = test: Replication of HIV-1BAL in human PBMC-derived monocytes (p24 ELISA); format: cell-based; settings: 1000, 100 and 10 ng/ml for 24 hours before infection; p24 after a further 19 days
Description: FIG. 5. Lipid A antagonist, lipid IVA, inhibits HIV replication. PBMCs were treated with synthetic lipid IVA at 1000 ng/ml, 100 ng/ml and 10 ng/ml for 24 hours. The treated cells were subsequently infected with 0.200 ng of HIV-1BAL (Cocchi et al, supra) for 2 hours, washed twice and incubated for a further 19 days. Culture supernatants were then collected and the level of p24 in these supernatants was measured by ELISA (R&D Systems). […] Figure Legend:
To investigate the utility of the aforementioned findings, we investigated whether commercially available synthetic lipid IVA (ICN Inc.) suppressed the replication of HIV-1BAL in human PBMC-derived monocytes. Therefore, PBMCs were obtained as outlined in Section 6, see above, and placed into 12 well culture flat-bottom plate and incubated in CM (see example 1) for […] at 37° C. in 5% Co2. Non-adherent cells were removed and the cells were given fresh media every 2 days. After 6 days, the adherent PBMCs were treated with synthetic lipid IVA at 1000 ng/ml, 100 ng/ml and 10 ng/ml for 24 hours. […] Culture supernatants were then collected and the level of p24 in these supernatants was measured by ELISA (R&D Systems).
PBMC-derived monocytes were obtained as outlined in Section 8, see above. […] Culture supernatants were then collected and the level of p24 in these supernatants was measured by ELISA (R&D Systems).

human PBMCs [3] = test: LPS antagonist activity: TNFα from human PBMCs stimulated with W3110 LPS mixed with test preparation; format: cell-based; settings: 1 μg/ml mixed with W3110 LPS 10 ng/ml, 8 hr
Description: as §1
W3110 LPS (also cultured at 37° C.) from 1 ng/ml to 100 ng/ml alone and W3110 LPS (10 ng/ml) mixed with synthetic lipid IVA (1 μg/ml) were used as controls.

mice = settings: cited from earlier work
HIV-1 = settings: in vivo; cited from earlier work

For `CCCCCCCCCCC[C@@H](O)CC(=O)N[C@H]1[C@H](OC[C@H]2O[C@H](OP(=O)(O)O)[C@H](NC(=O)C[C@H](O)CCCCCCCCCCC)[C@@H](OC(=O)C[C@H](O)CCCCCCCCCCC)[C@@H]2O)O[C@H](CO)[C@@H](OP(=O)(O)O)[C@@H]1OC(=O)C[C@H](O)CCCCCCCCCCC` [Lipid IVA], the “induction of β chemokines” value (human PBMCs [1]) was “WITHOUT INDUCING […] OF β CHEMOKINES”, the IL-1β (human PBMCs [2]) was 13 ± 1 pg/mL and the IL-6 (human PBMCs [2]) was 7581 ± 20 pg/mL. The “replication of HIV-1BAL (p24 in supernatants)” value (HIV-1BAL) was “suppresses the replication of HIV-1BAL in a dose-dependent manner” and the TNFα (human PBMCs [3]) was <30 pg/mL.
With `CCCCCC/C=C/CCCCCC(=O)O[C@H](CCCCCCCCCCC)CC(=O)NC1C(OCC2OC(OP(=O)(O)O)C(NC(=O)CC(=O)CCCCCCCCCCC)C(OC(=O)C[C@H](O)CCCCCCC)C2O)OC(CO)C(OP(=O)(O)O)C1OC(=O)C[C@H](O)CCCCCCC` (some centres unmarked) [RsDPLA, R. sphaeroides diphosphoryl lipid A] the “level of RANTES after stimulation” value (human PBMCs [1]; human PBMCs) was “not significantly elevated”, the MIP-1α secretion (human PBMCs [1]; human PBMCs, various doses) was “stimulated the secretion of MIP-1α and MIP-1β in a dose-dependent manner” and the MIP-1β secretion (human PBMCs [1]; human PBMCs, various doses) was “stimulated the secretion of MIP-1α and MIP-1β in a dose-dependent manner”. The “time of peak production of chemokines (MIP-1α, MIP-1β) after stimulation” value (human PBMCs [1]; supernatants 8, 16, 24 and 48 hr after stimulation) was 24 h.
In the case of “2,3-diacyl-glucosamine-1-phosphate [lipid X]”, the “pyrogenicity / toxicity in mice” value (mice) is listed as “non-pyrogenic”.
For `Cc1cn([C@H]2C[C@H](N=[N+]=[N-])[C@@H](CO)O2)c(=O)[nH]c1=O` [AZT, 3′-azido-2′,3′-dideoxythymidine], the “effect on viral load” value (HIV-1) is listed as “about 1 log reduction”.
